Values quoted from earlier work in patent EP3815682A1, “A PERK KINASE INHIBITOR FOR TREATING DISEASES ASSOCIATED WITH ENDOPLASMIC RETICULUM STRESS” (Uniwersytet Medyczny w Lodzi, priority 2019, dated 2021).

Legend:
pancreatic cells [1] = system: pancreatic cells
pancreatic cells [2] = conditions: reason for not entering clinical trials
[3] = biological target: T1, PERK kinase and eIF2α protein phosphorylation (Homo sapiens, UniProt Q9NZJ5); conditions: Atkins et al.
T1 sequence (Q9NZJ5 30-1116): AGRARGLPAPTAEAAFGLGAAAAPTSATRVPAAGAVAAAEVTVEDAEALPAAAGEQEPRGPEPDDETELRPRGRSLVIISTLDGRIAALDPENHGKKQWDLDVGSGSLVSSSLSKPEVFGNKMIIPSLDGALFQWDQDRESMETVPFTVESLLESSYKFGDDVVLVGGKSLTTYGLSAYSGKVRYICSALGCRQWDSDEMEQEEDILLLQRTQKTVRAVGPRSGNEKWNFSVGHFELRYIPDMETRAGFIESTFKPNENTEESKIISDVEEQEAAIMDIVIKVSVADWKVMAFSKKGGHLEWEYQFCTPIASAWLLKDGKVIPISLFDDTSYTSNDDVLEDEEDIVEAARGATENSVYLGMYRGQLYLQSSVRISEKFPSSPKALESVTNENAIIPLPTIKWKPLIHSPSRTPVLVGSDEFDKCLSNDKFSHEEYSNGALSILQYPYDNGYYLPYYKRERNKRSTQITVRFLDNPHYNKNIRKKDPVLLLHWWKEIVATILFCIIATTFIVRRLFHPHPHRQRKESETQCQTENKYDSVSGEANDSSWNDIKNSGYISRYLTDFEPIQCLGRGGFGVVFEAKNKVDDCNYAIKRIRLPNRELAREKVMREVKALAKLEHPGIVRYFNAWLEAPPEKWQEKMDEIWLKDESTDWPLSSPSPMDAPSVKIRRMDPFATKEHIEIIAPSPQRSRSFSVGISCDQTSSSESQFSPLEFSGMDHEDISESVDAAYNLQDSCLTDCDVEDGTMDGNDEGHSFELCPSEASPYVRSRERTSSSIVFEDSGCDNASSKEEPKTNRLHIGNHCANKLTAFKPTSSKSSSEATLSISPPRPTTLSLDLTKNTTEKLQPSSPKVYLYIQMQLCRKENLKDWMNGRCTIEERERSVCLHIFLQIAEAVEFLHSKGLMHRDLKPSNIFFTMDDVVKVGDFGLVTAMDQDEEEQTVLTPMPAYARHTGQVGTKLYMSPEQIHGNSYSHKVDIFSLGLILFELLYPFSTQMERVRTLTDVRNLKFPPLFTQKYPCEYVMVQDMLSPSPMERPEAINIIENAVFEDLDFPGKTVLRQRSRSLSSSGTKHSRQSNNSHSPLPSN

[4] = not told
[5] = animals administered the inhibitor

For `Cn1cc(-c2ccc3c(c2)CCN3C(=O)Cc2cccc(C(F)(F)F)c2)c2c(N)ncnc21` [GSK2606414], the glycemia (pancreatic cells [1]; [5]) is given as “hyperglycemia”, the weight (pancreatic cells [1]; [5]) is given as “significant weight loss” and the “effect on pancreatic cells” value (pancreatic cells [1]; mice) is given as “cytotoxic effect”. For the same compound, the “level of phosphorylated forms of PERK and eIF2α” value (PERK and eIF2α; compared with mice not administered the inhibitor) was “substantially lower” and the “protein synthesis in cells” value (PERK and eIF2α; mouse, in vivo) was “temporary restoration of protein synthesis”.
For `Cc1cccc(CC(=O)N2CCc3c2ccc(-c2cn(C)c4ncnc(N)c24)c3F)n1` [GSK2656157], the “activity on pancreatic cells” value (pancreatic cells [2]) is given as “non-selective activity also on pancreatic cells” and the “inhibition of PERK kinase and eIF2α protein phosphorylation” value [3] is given as “effective inhibition”.
In the case of `O=C(/C=C/c1ccccc1)NC(NC(=S)Nc1cccc2cccnc12)C(Cl)(Cl)Cl` (stereo not shown) [Salubrinal], the survival (eIF2α phosphorylation; compared with animals that did not receive the compound) is listed as “died quicker” and the eIF2α phosphorylation (eIF2α phosphorylation; mouse, in vivo) is listed as “increase”.
In the case of `O=C(COc1ccc(Cl)cc1)NC1CCC(NC(=O)COc2ccc(Cl)cc2)CC1` (stereo not shown) [ISRIB], the “permeability of the blood-brain barrier” value [4] is listed as “good permeability”.
